Patent US20220125051A1, “PRE-HARVEST DESICCATION METHOD” (SYNGENTA CROP PROTECTION AG, priority 2019, published 2022)

Columns and labels:
Assay in all cases: Post-emergence efficacy, Method A
Format in all cases: in vivo
Setaria faberi (SETFA) = details: Application Rate 500 g/Ha, evaluated after 13 days, Method A; for pest or weed control at 500 g/ha: Setaria faberi, post-emergence, 312 h, read-out: Control of weed species after post-emergence application, SETFA (100=total damage to plant; 0=no damage to plant)
How it was run: (§1)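 Plants grown 14 days in glasshouse (24/16 °C, 14 h light, 65% humidity) were sprayed with compound formulated in IF50. The spray was diluted in 0.25% or 1% Empicol ESC70 plus 1% ammonium sulphate. Damage was scored 13 days later on a 0-100 scale, where 100 is total damage.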

[1] = tested on: Euphorbia heterophylla (EPHHL); details: Application Rate 500 g/Ha, evaluated after 13 days, Method A; for pest or weed control at 500 g/ha: Euphorbia heterophylla, post-emergence, 312 h, read-out: Control of weed species after post-emergence application, EPHHL (100=total damage to plant; 0=no damage to plant)
How it was run: as §1

[2] = tested on: Chenopodium album (CHEAL); details: Application Rate 500 g/Ha, evaluated after 13 days, Method A; for pest or weed control at 500 g/ha: Chenopodium album, post-emergence, 312 h, read-out: Control of weed species after post-emergence application, CHEAL (100=total damage to plant; 0=no damage to plant)
How it was run: as §1

Lolium perenne (LOLPE) = details: Application Rate 500 g/Ha, evaluated after 13 days, Method A; for pest or weed control at 500 g/ha: Lolium perenne, post-emergence, 312 h, read-out: Control of weed species after post-emergence application, LOLPE (100=total damage to plant; 0=no damage to plant)
How it was run: as §1

[3] = tested on: Echinochloa crus-galli (ECHCG); details: Application Rate 500 g/Ha, evaluated after 13 days, Method A; for pest or weed control at 500 g/ha: Echinochloa crus-galli, post-emergence, 312 h, read-out: Control of weed species after post-emergence application, ECHCG (100=total damage to plant; 0=no damage to plant)
How it was run: as §1

[4] = tested on: Digitaria sanguinalis (DIGSA); details: Application Rate 500 g/Ha, evaluated after 13 days, Method A; for pest or weed control at 500 g/ha: Digitaria sanguinalis, post-emergence, 312 h, read-out: Control of weed species after post-emergence application, DIGSA (100=total damage to plant; 0=no damage to plant)
How it was run: as §1

[5] = tested on: Ipomoea hederacea (IPOHE); details: Application Rate 500 g/Ha, evaluated after 13 days, Method A; for pest or weed control at 500 g/ha: Ipomoea hederacea, post-emergence, 312 h, read-out: Control of weed species after post-emergence application, IPOHE (100=total damage to plant; 0=no damage to plant)
How it was run: as §1

Eleusine indica (ELEIN) = details: Application Rate 500 g/Ha, evaluated after 13 days, Method A; for pest or weed control at 500 g/ha: Eleusine indica, post-emergence, 312 h, read-out: Control of weed species after post-emergence application, ELEIN (100=total damage to plant; 0=no damage to plant)
How it was run: as §1

[6] = tested on: Amaranthus palmeri (AMAPA); details: Application Rate 500 g/Ha, evaluated after 13 days, Method A; for pest or weed control at 500 g/ha: Amaranthus palmeri, post-emergence, 312 h, read-out: Control of weed species after post-emergence application, AMAPA (100=total damage to plant; 0=no damage to plant)
How it was run: as §1

| SMILES | pest or weed control at 500 g/ha (Setaria faberi (SETFA)) [%] | pest or weed control at 500 g/ha [1] [%] | pest or weed control at 500 g/ha [2] [%] | pest or weed control at 500 g/ha (Lolium perenne (LOLPE)) [%] | pest or weed control at 500 g/ha [3] [%] | pest or weed control at 500 g/ha [4] [%] | pest or weed control at 500 g/ha [5] [%] | pest or weed control at 500 g/ha (Eleusine indica (ELEIN)) [%] | pest or weed control at 500 g/ha [6] [%] | Control of weed species after post-emergence application, SETFA (100=total damage to plant; 0=no damage to plant) (Setaria faberi (SETFA)) | Control of weed species after post-emergence application, EPHHL (100=total damage to plant; 0=no damage to plant) [1] | Control of weed species after post-emergence application, CHEAL (100=total damage to plant; 0=no damage to plant) [2] | Control of weed species after post-emergence application, LOLPE (100=total damage to plant; 0=no damage to plant) (Lolium perenne (LOLPE)) | Control of weed species after post-emergence application, ECHCG (100=total damage to plant; 0=no damage to plant) [3] | Control of weed species after post-emergence application, DIGSA (100=total damage to plant; 0=no damage to plant) [4] | Control of weed species after post-emergence application, IPOHE (100=total damage to plant; 0=no damage to plant) [5] | Control of weed species after post-emergence application, ELEIN (100=total damage to plant; 0=no damage to plant) (Eleusine indica (ELEIN)) | Control of weed species after post-emergence application, AMAPA (100=total damage to plant; 0=no damage to plant) [6] |
| --- | --- | --- | --- | --- | --- | --- | --- | --- | --- | --- | --- | --- | --- | --- | --- | --- | --- | --- |
| Nc1cc(-c2cc[n+](CCS(=O)(=O)[O-])nc2)ncn1 [Compound A164] | 50 | 90 | 80 | 40 | 30 | 30 | 40 | 80 | 100 | – | – | – | – | – | – | – | – | – |
| O=S(=O)([O-])CC[n+]1ccc(-c2ccnc(C(F)(F)F)c2)cn1 [Compound A165] | 60 | 50 | 50 | 60 | 70 | 60 | 40 | 70 | 100 | – | – | – | – | – | – | – | – | – |
| O=C(O)CC[n+]1ccc(-c2ccnc(C(F)(F)F)c2)cn1 [Compound A166] | 40 | 60 | 50 | 70 | 50 | 70 | 60 | 60 | 30 | – | – | – | – | – | – | – | – | – |
| CC(C)(C[n+]1ccc(-c2ccncn2)cn1)C(=O)O [Compound A167] | 40 | 90 | 70 | 40 | 60 | 50 | 100 | 80 | 20 | – | – | – | – | – | – | – | – | – |
| O=S(=O)([O-])CCC[n+]1ccc(-c2ccc(-c3ccc(Cl)nn3)nn2)cn1 [Compound A168] | 10 | 30 | 40 | 10 | 20 | 10 | 20 | 20 | 0 | – | – | – | – | – | – | – | – | – |
| O=S(=O)([O-])CC[n+]1ccc(-c2ncc(CO)cn2)cn1 [Compound A170] | 80 | 70 | 100 | 50 | 80 | 40 | 40 | 40 | 100 | – | – | – | – | – | – | – | – | – |
| CC(CC(=O)O)[n+]1ccc(-c2ccncn2)cn1 (stereo not drawn) [Compound A172] | 50 | 50 | 60 | 20 | 50 | 80 | 40 | 70 | 30 | – | – | – | – | – | – | – | – | – |
| O=c1[nH]c(-c2cc[n+](CCCS(=O)(=O)[O-])nc2)ncc1Cl [Compound A173] | 30 | 40 | 50 | 10 | 30 | 20 | 20 | 10 | 30 | – | – | – | – | – | – | – | – | – |
| O=S(=O)([O-])CC[n+]1ccc(-c2ccc(C(F)(F)F)cn2)cn1 [Compound A174] | 60 | 60 | 40 | 60 | 50 | 50 | 50 | 60 | 100 | – | – | – | – | – | – | – | – | – |
| O=S(=O)([O-])CC[n+]1ccc(-c2ncc(C(F)(F)F)cc2Cl)cn1 [Compound A175] | 30 | 30 | 60 | 10 | 30 | 40 | 20 | 40 | 30 | – | – | – | – | – | – | – | – | – |
| Cc1cnc(-c2cc[n+](CCC(=O)O)nc2)c(C)c1 [Compound A177] | 0 | 30 | 50 | 0 | 0 | 10 | 20 | 10 | 60 | – | – | – | – | – | – | – | – | – |
| Cc1cnc(-c2cc[n+](CCC(=O)O)nc2)c(F)c1 [Compound A178] | 10 | 40 | 70 | 0 | 10 | 10 | 20 | 0 | 90 | – | – | – | – | – | – | – | – | – |
| O=S(=O)(O)CC[n+]1ccc(-c2cccnc2)cn1 [Compound A179] | – | – | – | – | – | – | – | – | – | 60 | 60 | 30 | 10 | 40 | 50 | 20 | 50 | 30 |
| O=C(O)C(O)C[n+]1ccc(-c2ncccn2)cn1 (stereo not drawn) [Compound A180] | 70 | 80 | 90 | 30 | 70 | 60 | 20 | 90 | 100 | – | – | – | – | – | – | – | – | – |
| N#Cc1ccnc(-c2cc[n+](CCO)nc2)n1 [Compound A186] | 60 | 30 | 70 | 10 | 30 | 60 | 30 | 50 | 70 | – | – | – | – | – | – | – | – | – |
| Nc1cc(-c2cc[n+](CCC(=O)O)nc2)nc(N)n1 [Compound A188] | 30 | 30 | 50 | 20 | 50 | 40 | 20 | 20 | 90 | – | – | – | – | – | – | – | – | – |
| CC(C)(CC(=O)O)[n+]1ccc(-c2ccncn2)cn1 [Compound A189] | 70 | 90 | 100 | 30 | 80 | 50 | 70 | 90 | 100 | – | – | – | – | – | – | – | – | – |
| O=C(O)C(O)C[n+]1ccc(-c2ccncn2)cn1 (stereo not drawn) [Compound A190] | 40 | 80 | 80 | 40 | 60 | 60 | 70 | 70 | 100 | – | – | – | – | – | – | – | – | – |
